Data from the supplement of paper PMC10307832.

Experiments:
Experiment in all cases: relative viability (nuclei count vs DMSO), 5 days (fraction); higher = more cells survive
[1] = compound: C1=CC=C2C(=C1)N=C(S2)C(C#N)C3=NC(=NC=C3)NCCC4=CN=CC=C4 + N=C(N)NC(=N)NCCc1ccccc1 [Phenformin] (partner 250 µM)
Outline: (§1)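 Lung cancer cell lines in 1536-well plates were dosed by pin tool the day after seeding, either with one drug alone or with a fixed anchor-drug dose plus five library-drug doses (not always all listed) in √10 steps. After 5 days, cells were fixed and their nuclei stained in one step (final 0.05% Triton X-100, 1% formaldehyde, 1 ug/ml Hoechst), then counted on 4× images. Relative viability is the nuclei count in treated wells divided by that in vehicle wells. Values are medians of duplicate plates.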

Vandetanib + Linsitinib = compound: COc1cc2/c(=N/c3ccc(Br)cc3F)nc[nH]c2cc1OCC1CCN(C)CC1 [Vandetanib] + C[C@]1(O)C[C@@H](c2nc(-c3ccc4ccc(-c5ccccc5)nc4c3)c3c(N)nccn32)C1 [Linsitinib] (partner 1 µM)
Outline: as §1

NVP-TAE684 + Decitabine = compound: COc1cc(N2CCC(N3CCN(C)CC3)CC2)ccc1Nc1ncc(Cl)c(Nc2ccccc2S(=O)(=O)C(C)C)n1 [NVP-TAE684] + Nc1ncn([C@H]2C[C@H](O)[C@@H](CO)O2)c(=O)n1 [Decitabine] (partner 2 µM)
Outline: as §1

[2] = compound: C1=CC=C2C(=C1)N=C(S2)C(C#N)C3=NC(=NC=C3)NCCC4=CN=CC=C4 + CS(=O)(=O)CCNCc1ccc(-c2ccc3ncnc(Nc4ccc(OCc5cccc(F)c5)c(Cl)c4)c3c2)o1 [Lapatinib] (partner 2 µM)
Outline: as §1

Cell Line	relative viability ([1]; first compound 0.005 µM)	relative viability ([1]; first compound 0.01581 µM)	relative viability ([1]; first compound 0.05 µM)	relative viability ([1]; first compound 0.1581 µM)	relative viability ([1]; first compound 0.5 µM)	relative viability (Vandetanib + Linsitinib; first compound 0.02 µM)	relative viability (Vandetanib + Linsitinib; first compound 0.06325 µM)	relative viability (Vandetanib + Linsitinib; first compound 0.2 µM)	relative viability (Vandetanib + Linsitinib; first compound 0.6325 µM)	relative viability (Vandetanib + Linsitinib; first compound 2 µM)	relative viability (NVP-TAE684 + Decitabine; first compound 0.2 µM)	relative viability (NVP-TAE684 + Decitabine; first compound 0.6325 µM)	relative viability (NVP-TAE684 + Decitabine; first compound 2 µM)	relative viability ([2]; first compound 0.005 µM)	relative viability ([2]; first compound 0.01581 µM)	relative viability ([2]; first compound 0.05 µM)	relative viability ([2]; first compound 0.1581 µM)	relative viability ([2]; first compound 0.5 µM)
NCI-H322M	0.63	0.688	0.708	0.81	0.694	0.832	0.841	0.924	0.846	0.894	0.658	0.619	0.526	0.545	0.487	0.592	0.687	0.504
NCI-H358	0.216	0.329	0.334	0.404	0.258	0.764	0.708	0.201	0.501	0.301	0.198	0.197	0.0907	0.436	0.413	0.463	0.518	0.481
NCI-H460	0.281	0.57	0.503	0.695	0.29	0.733	0.758	0.0194	0.757	0.58	0.535	0.51	0.294		1.12	1.06	1.85	0.273
NCI-H520	0.494	0.472	0.556	0.636	0.532	0.886	1.1	0.942	0.904	0.912	0.508	0.45	0.267	0.672	0.818	1.01	1.15	0.819
NCI-H596	0.557	0.848	0.687	0.921	0.801	1.04	0.942	1.11	0.956	0.972	1	1.08	0.989	0.921	1.11	1.07	1.23	0.937
NCI-H647	0.265	0.442	0.584	0.775	0.292	1.1	1.13	1.08	1.2	1.14	0.388	0.386	0.261		1.34	1.11	1.3	0.546
NCI-H650	0.49		0.483	0.452	0.505	0.872	0.839	0.677	0.792	0.254	0.306	0.329	0.276	0.665	0.625	0.994	1.45	0.718
NCI-H661	0.231	0.255	0.291	0.291	0.277	0.585	0.506	0.59	0.672	0.418	0.584	0.495	0.508	0.512	0.533	0.451	0.519	0.476
NCI-H727		0.577	0.45	0.55	0.641	0.216	0.336	0.347	0.283	0.271	0.836	0.771	0.552	0.857	0.821	0.813	0.83	0.795
NCI-H838	0.326	0.573	0.527	0.717	0.39	1.02	1.07	1.02	1.01	1.01	0.456	0.464	0.314	0.916	0.962	1.12	1.15	0.95
NCI-H1355	0.41	0.437	0.412	0.436	0.412	0.732	0.732	0.551	0.812	0.755	0.372	0.383	0.31	1.18	1.03	1	1.14	0.931
NCI-H1395	0.422	0.378	0.415	0.449	0.418	1.1	1.09	0.934	0.968	1.18	0.682	0.712	0.616	0.953		1.17	1.08	1.08
NCI-H1437	0.298	0.3	0.345	0.339	0.223	0.994	0.971	1.04	1.01	0.966	0.596	0.548	0.474	0.762	0.902	0.987	0.9	0.704
NCI-H1651	0.281	0.352	0.364	0.403	0.337	1	0.87	0.956	0.873	0.806	0.614	0.566	0.502	0.76	0.697	1.03	1.11	0.872
NCI-H1666	0.529	0.578	0.556	0.539	0.511	0.836	0.817	0.793	0.641	0.619	0.71	0.732	0.597	0.486	0.636	0.631	0.665	0.584
NCI-H1734		0.44	0.375	0.471	0.392	0.849	0.891	0.849	0.89	0.848	0.466	0.347	0.432	1.05	1.09	1.03	1.14	1.01
